This is an account of results in patent US20240261305A1 (priority 2021, published 2024).

What is called bioavailability is dose-corrected exposure relative to a reference, in per cent.

Data set [1] can be described thus: Stability of CBD at room temperature and in the dark. Format: physicochemical. The note with it: room temperature; for degradation of CBD: 3 months.
The conditions of data set [2]: after oral administration; cited from earlier work.
A short description of data set [3]: in vivo. The note with it: mouse, po, mice.
Data set [4] is described as follows: in vivo. The note with it: rat, po, rats.
Where [5] appears, read: kinetic detection (oral bioavailability), sesame oil alone.
[6] abbreviates: oral bioavailability, administered as an unformulated oil extract.
Where [7] appears, read: oral bioavailability, formulated (mixture of sesame oil, amaranth oil and squalene).

Take `C=C(C)[C@@H]1CCC(C)=C[C@H]1c1c(O)cc(CCCCC)cc1O` [CBD, cannabidiol]: the “degradation of CBD” value in data set [1] (CBD from ethanolic cannabis extract formulated in a mixture of sesame oil, amaranth and squalene (at least 0.1%)) came to 3%; in data set [1] (CBD in products obtained by ethanolic extraction from cannabis), 8%; in data set [1] (CBD in pure form (both amorphous and crystalline)), 11%; in data set [1] (pure CBD formulated in a mixture of sesame oil, amaranth and squalene (at least 0.1%)), 4%. The “instability compared with unformulated CBD” value in data set [1] (CBD solubilised in sesame oil or amaranth oil or in squalene alone) was “did not show a statistically significant difference”. The “time to reach peak plasma concentration” value in data set [2] was 1 to 4 h. The bioavailability was 25 to 30% in data set [3] (setting [5]); 5 to 6% in data set [3] (setting [6]); ~50% in data set [3] (setting [7]); 25 to 30% in data set [4] (setting [5]); 5 to 6% in data set [4] (setting [6]); ~60% in data set [4] (setting [7]).
